Measured values from patent US20070036793A1, “Methods for use of an lkb1/strad7mo25 complex” (priority 2003, published 2007).
“Also recorded” adds a separate entry of the source.

Key:
AMPK = molecular target: T1, AMPK (Homo sapiens, UniProt Q13131); assay: Activation and Thr-172 phosphorylation of endogenous AMPK in HeLa cells with or without stably expressed LKB1; type: cell-based; settings: 2 mM AICA riboside or 10 mM phenformin, 60 min
T1 construct: Endogenous AMPK was immunoprecipitated from the cell extracts and assayed; endogenous in cells; host or cells: HeLa cells (control, or stably expressing wild type or kinase-dead LKB1)
Description: FIG. 18: Restoration of the ability of AMPK to be activated by AICA riboside and phenformin in HeLa cells by expression of LKB1. Control HeLa cells (lanes 1, 2, 3), HeLa cells expressing wild type (WT) LKB1 (lanes 4, 5, 6) and kinase dead (D194A, KD) mutant LKB1 (lanes 7, 8, 9) were either left unstimulated or treated with 2 mM AICA riboside or 10 mM phenformin for 60 min and lysed. (A) Endogenous AMPK was immunoprecipitated from the cell extracts and assayed. (B) The cell lysates was immunoblotted with antibodies recognising AMPKα1 phosphorylated at Thr172 or total AMPKα1; the results were analysed using the LI-COR IR Odyssesy™ imager as described under Materials and Methods, and are expressed as a ratio of the two signals. (C) The cell lysates was analysed by Western blotting and the membranes probed with antibodies recognising ACC phosphorylated at Ser-79, or streptavidin to determine total […]. The results were analysed using the LI-COR IR imager as for (B).
AMPK [14]and AMPKK [34] were assayed, and units defined, as described previously. Rapid lysis of cells for AMPK assays was as described previously. Assays were carried out in triplicate and results are expressed as mean ± standard deviation.
To analyse phosphorylation of ACC, samples were analysed by SDS-PAGE, transferred to nitrocellulose (BioRad) and incubated in Odyssey™ Blocking buffer containing 0.2% Tween-20 for 1 h. Anti-pACC antibody (1.46 μg/ml in blocking buffer) was then added and left shaking for 1 h. The membranes were washed 6×5 min with TBS (10 mM Tris-HCl, pH 7.4, 0.5M NaCl) plus Tween-20 (0.2%). The membranes were immersed in blocking buffer containing 0.2% Tween-20 and 1 μg/ml anti-sheep IgG conjugated to JR dye 680 (Molecular Probes, Leiden, The Netherlands) and 1 μg/ml streptavidin conjugated to IR Dye 800 (Rockland Inc., Philadelphia, Pa.) and left shaking for 1 h, protected from light. The membranes were then washed 6×5 min using TBS-Tween (0.2%) and 1×5 min in PBS. The membranes were scanned in two different channels using the Odyssey™ IR imager, the results quantified using Odyssey™ software and expressed as a ratio of the signal obtained with the pACC antibody to that obtained with streptavidin. Analysis of phosphorylation of GST-α1 catalytic domain was similar except that the 4-12% Bis-Tris gels were used, and the membranes were simultaneously probed for 1 h with the sheep anti-pT172 and anti-AMPKα1-catalytic domain antibodies, directly labelled with the IR dye 680 and IR Dye 800 respectively, according to manufacturers' instructions.

AMPKα1 = molecular target: T2, AMPKα1 (Mus musculus, UniProt Q5EG47); assay: AMPK activity and Thr172 phosphorylation in LKB1+/+ MEFs after drug stimulation; type: cell-based; settings: 1 h
T2 construct: AMPKα1 and AMPK-related kinases were immunoprecipitated from the cell lysates; endogenous in cells; host or cells: immortalised LKB1+/+ MEFs
Description: FIG. 27 Activity of AMPK-related kinases in LKB1+/+ and LKB1^−/− MEFs. LKB1^+/+ or LKB1^−/− MEFs were either left untreated (black bars) or stimulated with 10 mM phenformin (Phen, white bars) for 1 h. AMPKα1 and AMPK-related kinases were immunoprecipitated from the cell lysates, and in vitro kinase activity towards the AMARA peptide was measured as described in Materials and Methods (Example 4). To confirm equal expression of the kinases in each sample, cell lysates (AMPKα1, NUAK2, MARK2/3 and MARK4) or immunoprecipitated proteins (QIK, QSK, SIK and MARK1) were subjected to SDS-PAGE and western blot analysis. All AMPK-related kinases migrated with the expected molecular mass. In the case of AMPKα1, cell lysates were immunoblotted with a phospho Thr172 antibody (P-AMPK), that recognises the phosphorylated T-loop. A control immunoblot of LKB1 levels in cell lysates is also included in panel B. Results shown are average + SD of 2-4 assays and are representative of at least two independent experiments.
FIG. 28. […] (A) LKB1^+/+ MEFs were either left untreated or stimulated with the indicated concentrations of phenformin (Phen) for 1 h. AMPKα1/a2 and LKB1 were immunoprecipitated from the cell lysates, and in vitro kinase activity towards the AMARA and LKBtide peptides respectively, were measured as described in Materials and Methods (Example 4). (B) To confirm equal expression of the kinases in each sample, cell lysates were subjected to SDS-PAGE and western blot analysis with the indicated antibodies. The phospho pT172 antibody (P-AMPK) recognises the phosphorylated T-loop of AMPKα1. Results are shown as the average ± SD for a triplicate assay and are representative of two independent experiments. […] AMPKα1 and the indicated AMPK-related kinases were immunoprecipitated from the cell lysates, and in vitro kinase activity towards the AMARA peptide measured as described in Materials and Methods. […]
Cell culture, stimulation and cell lysis. […] Protein concentrations were determined by the Bradford method with bovine serum albumin as the standard (Bradford, 1976). […]

[1] = HeLa cells stably expressing wild type LKB1
[2] = control HeLa cells not expressing LKB1

T2 sequence (Q5EG47 whole entry): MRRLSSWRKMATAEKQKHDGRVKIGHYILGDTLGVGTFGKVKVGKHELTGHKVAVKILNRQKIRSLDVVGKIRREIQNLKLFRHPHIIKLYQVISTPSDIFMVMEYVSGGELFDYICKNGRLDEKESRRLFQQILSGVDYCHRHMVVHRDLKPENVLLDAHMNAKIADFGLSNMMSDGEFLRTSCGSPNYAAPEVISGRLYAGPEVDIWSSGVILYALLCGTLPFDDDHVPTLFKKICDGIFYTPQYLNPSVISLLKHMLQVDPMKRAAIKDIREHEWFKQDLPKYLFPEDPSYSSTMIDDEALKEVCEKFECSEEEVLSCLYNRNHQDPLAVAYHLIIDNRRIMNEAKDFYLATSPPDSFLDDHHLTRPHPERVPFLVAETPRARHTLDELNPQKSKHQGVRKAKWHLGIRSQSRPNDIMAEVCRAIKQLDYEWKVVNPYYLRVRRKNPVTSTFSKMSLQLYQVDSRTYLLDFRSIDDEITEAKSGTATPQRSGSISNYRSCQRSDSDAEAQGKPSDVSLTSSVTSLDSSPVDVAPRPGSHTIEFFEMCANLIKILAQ
T2 sequence (Q9R078 2-270 partner limits assumed): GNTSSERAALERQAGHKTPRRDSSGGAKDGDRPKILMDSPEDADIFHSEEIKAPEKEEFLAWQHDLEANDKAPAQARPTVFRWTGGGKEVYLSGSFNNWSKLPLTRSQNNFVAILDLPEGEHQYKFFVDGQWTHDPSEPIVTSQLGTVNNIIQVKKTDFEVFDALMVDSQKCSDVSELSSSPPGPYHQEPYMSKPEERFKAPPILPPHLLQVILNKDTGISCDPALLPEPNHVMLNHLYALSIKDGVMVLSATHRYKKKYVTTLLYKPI
T2 sequence (O54950 whole entry partner): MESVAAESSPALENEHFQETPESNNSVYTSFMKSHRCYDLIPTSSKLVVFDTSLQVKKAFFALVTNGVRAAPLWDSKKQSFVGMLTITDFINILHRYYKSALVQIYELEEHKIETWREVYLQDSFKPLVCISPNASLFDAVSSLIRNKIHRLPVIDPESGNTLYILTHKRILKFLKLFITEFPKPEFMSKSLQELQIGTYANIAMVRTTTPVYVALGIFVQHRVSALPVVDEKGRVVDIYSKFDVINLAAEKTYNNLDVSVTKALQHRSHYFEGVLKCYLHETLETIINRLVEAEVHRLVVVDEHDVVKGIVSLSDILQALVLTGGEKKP
T1 sequence (Q13131 whole entry): as the sequence (Q5EG47 whole entry) above, with A269T, F455Y, I497V, P516S, D518E, V535L, A536T counted along it
T1 sequence (Q9Y478 2-270 partner limits assumed): as the sequence (Q9R078 2-270 partner limits assumed) above, with Q13H, A14G, A27T, I45L, A68V, Q108H, M192V, S193C, K200R counted along it
T1 sequence (P54619 whole entry partner): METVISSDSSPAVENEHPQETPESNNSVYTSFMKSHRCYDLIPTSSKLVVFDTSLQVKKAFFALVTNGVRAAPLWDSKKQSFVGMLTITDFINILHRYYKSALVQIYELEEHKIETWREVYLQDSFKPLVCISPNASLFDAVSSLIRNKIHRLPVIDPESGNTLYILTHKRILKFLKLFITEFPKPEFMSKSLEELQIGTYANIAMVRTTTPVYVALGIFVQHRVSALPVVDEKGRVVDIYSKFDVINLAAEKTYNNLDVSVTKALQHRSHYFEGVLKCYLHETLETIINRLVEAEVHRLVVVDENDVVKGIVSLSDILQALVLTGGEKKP

NC(=O)c1ncn([C@@H]2O[C@H](CO)[C@@H](O)[C@H]2O)c1N [AICA riboside, 5-aminoimidazole-4-carboxamide (AICA) riboside]
activation of AMPK (AMPK; [1]): robust activation | phosphorylation of Thr-172 on the AMPKα subunit (AMPK; [1]): restored | activation of AMPK (AMPK; [2]): neither AICA riboside nor phenformin activated AMPK | activation of AMPK (AMPKα1; 2 mM AICA riboside): activated AMPK

[H]/N=C(/N)N/C(=N/[H])NCCc1ccccc1 [phenformin]
activation of AMPK (AMPK; [1]): robust activation; also recorded: larger activation of AMPK | phosphorylation of Thr-172 on the AMPKα subunit (AMPK; [1]): restored | activation of AMPK (AMPK; [2]): neither AICA riboside nor phenformin activated AMPK | activation of AMPK (AMPKα1; increasing doses of phenformin): progressively activated AMPK | phosphorylation of Thr172 of AMPK (AMPKα1; increasing doses of phenformin): increased the phosphorylation of Thr172
